Test results: US20240408222A1, “COMPOUNDS, PHARMACEUTICAL COMPOSITIONS, AND METHODS FOR THE TREATMENT, PREVENTION, OR MANAGEMENT OF HYPERPRO[…]” (VINCERX PHARMA GMBH, priority 2021, published 2024)

Experiments:
in vivo = conditions: male, rat, plasma, iv, 0.5 mg/kg
Procedure: Male rats (n=3) were given an intravenous 0.5 or 2.0 mg/kg bolus dose of test article dissolved in plasma with 1% DMSO and 2% ethanol (C30 only). Serial blood samples were collected up to 24 hours post-dose. Plasma was harvested from blood samples and stored frozen until sample analysis. Test article plasma concentrations were analyzed by LC/MS/MS.

SUM149 [1] = assay: Cytotoxicity in vitro (MTT) in presence/absence of elastase; assay type: cell-based; conditions: 72 h
Procedure: (§1) Cultivation of cells was performed according to standard procedures with the media recommended by the provider. The cells, in a total volume of 100 μL, were seeded in a 96-well plate with a white bottom (#3610). After a 24 h incubation period at 37° C. and […], the medium was exchanged by adding 90 μL fresh medium. The treatment started by adding the test compound in 10 μL of culture medium to the cells in triplicates. Concentrations ranging from 10^−5 M to 10^−13 M were chosen. Two identically treated sets of samples were prepared. One set was treated with the test compound alone, whereas to the second set the compound and 10 nM elastase was added followed by a 72 h incubation period at 37° C. and […]. The proliferation was detected using the MTT assay (ATCC). At the end of the incubation period the MTT reagent was added to all samples for 4 h. Lysis of the cells followed by addition of the detergent was done overnight. The formed dye was detected at 570 nm. The proliferation of untreated but otherwise identically handled cells was define as the 100% value.

SUM149 [2] = assay: Cytotoxicity assay (Version 2, automated, AC50) with/without neutrophil elastase; assay type: cell-based; conditions: Version 2, activity concentration at −50%
Procedure: as §1
(§2) The cytotoxicity assay (Version 2) was performed as described above. Some changes were applied as the assays were performed in an automated fashion and the IC50 values determination was changed. Here the change in metabolic activity of the cells, in percent, was calculated by normalization of the measured values to the absorbance values of medium containing wells without cells (═−100%) and the absorbance of the DMSO-treated cells (═0%). AC50 values (activity concentration at −50%) were determined by means of a 4 parameter Hill-fit using GeneData Screener software.

HT29 [3] = assay: as above; assay type: cell-based, human; conditions: Version 2, activity concentration at −50%
Procedure: as §1, §2

786-O [4] = assay: as above; assay type: cell-based, human; conditions: Version 2, activity concentration at −50%
Procedure: as §1, §2

NCI H292 [5] = assay: as above; assay type: cell-based, human; conditions: Version 2, activity concentration at −50%
Procedure: as §1, §2

HT29 [6] = assay: Cytotoxicity in vitro (MTT) in presence/absence of elastase; assay type: cell-based, human; conditions: 72 h
Procedure: as §1

786-O [7] = assay: as above; assay type: cell-based, human; conditions: 72 h
Procedure: as §1

NCI H292 [8] = assay: as above; assay type: cell-based, human; conditions: 72 h
Procedure: as §1

[9] = SUM149, with (+) 10 nM neutrophil elastase
[10] = SUM149, without (−) neutrophil elastase
[11] = SUM149, with (+) neutrophil elastase
[12] = HT29, with (+) neutrophil elastase
[13] = HT29, without (−) neutrophil elastase
[14] = without (−) neutrophil elastase
[15] = NCI H292, with (+) neutrophil elastase
[16] = NCI H292, without (−) neutrophil elastase
[17] = HT29, with (+) 10 nM neutrophil elastase
[18] = with (+) 10 nM neutrophil elastase
[19] = NCI H292, with (+) 10 nM neutrophil elastase

Structure (SMILES) | AUC (in vivo) | Vd (in vivo) | clearance (in vivo) | half-life (in vivo) | IC50 (SUM149 [1]; [9]) | IC50 (SUM149 [1]; [10]) | AC50 (SUM149 [2]; [11]) | AC50 (SUM149 [2]; [10]) | AC50 (HT29 [3]; [12]) | AC50 (HT29 [3]; [13]) | AC50 (786-O [4]; with (+) neutrophil elastase) | AC50 (786-O [4]; [14]) | AC50 (NCI H292 [5]; [15]) | AC50 (NCI H292 [5]; [16]) | IC50 (HT29 [6]; [17]) | IC50 (HT29 [6]; [13]) | IC50 (786-O [7]; [18]) | IC50 (786-O [7]; [14]) | IC50 (NCI H292 [8]; [19]) | IC50 (NCI H292 [8]; [16])
CCCNC(=O)Nc1cccc(S(=O)(=O)Nc2cccc([C@@H](CC(=O)O)NC(=O)Nc3ccc(NC(=O)NCCOCCOCCOCCC(=O)N[C@@H](CC(=O)O)C(=O)N4CCC[C@H]4C(=O)N[C@H](C(=O)N=[S@](C)(=O)Cc4cc5cc(c4)O[C@H](C)CCOc4cc(F)ccc4-c4nc(ncc4F)N5)C(C)C)cc3)c2)c1 (relative stereo) [Compound 48] | 1000 to 10000 ng·h/mL | 0.03 to 0.1 L/kg | > 5 mL/min/kg | 0.1 to 1 h | – | – | – | – | – | – | – | – | – | – | – | – | – | – | – | –
CCCNC(=O)Nc1cccc(S(=O)(=O)Nc2cccc([C@@H](CC(=O)O)NC(=O)Nc3ccc(NC(=O)NCCOCCOCCOCCC(=O)NCCCC[C@H](NC(=O)CCOCCOCCOCCNC(=O)Nc4ccc(NC(=O)N[C@H](CC(=O)O)c5cccc(NS(=O)(=O)c6cccc(NC(=O)NCCC)c6)c5)cc4)C(=O)NCCOCCOCCOCCC(=O)N[C@@H](CC(=O)O)C(=O)N4CCC[C@H]4C(=O)N[C@H](C(=O)N=S(C)(=O)Cc4cc5cc(c4)OC(C)CCOc4cc(F)ccc4-c4nc(ncc4F)N5)C(C)C)cc3)c2)c1 (relative stereo) [Compound 30] | 50000 to 150000 ng·h/mL | > 0.1 L/kg | 0.05 to 0.5 mL/min/kg | 10 to 20 h | – | – | – | – | – | – | – | – | – | – | – | – | – | – | – | –
CCCNC(=O)Nc1cccc(S(=O)(=O)Nc2cccc([C@@H](CC(=O)O)NC(=O)Nc3ccc(NC(=O)N(C)CCN(C)CCN(C)CC(=O)N[C@@H](CC(N)=O)C(=O)N4CCC[C@H]4C(=O)N[C@H](C(=O)N=[S@@](C)(=O)Cc4cc5cc(c4)OCCCCOc4cc(F)ccc4-c4nc(ncc4F)N5)C(C)C)cc3)c2)c1 [Compound 5, N-{2-[{2-[({4-[({(1R)-2-Carboxy-1-[3-({3-[(propylcarbamoyl)amino]benzene-1-sulfonyl}amino)phenyl]ethyl}carbamoyl)amino]phenyl}carbamoyl)(methyl)amino]ethyl} (methyl)amino]ethyl}-N-methylglycyl-L-asparaginyl-L-prolyl-N—[(S)-{[16,20-difluoro-2,3,4,5-tetrahydro-12H-13,17-(azeno)-11,7-(metheno)-1,6,12,14-benzodioxadiazacyclononadecin-9-yl]methyl}(methyl)oxo-lambda^6-sulfanylidene]-L-valinamide] | – | – | – | – | 0.0011 to 0.01 µM | > 0.1 µM | 0.011 to 0.1 µM | > 1 µM | 0.011 to 0.1 µM | > 1 µM | 0.011 to 0.1 µM | > 1 µM | 0.011 to 0.1 µM | 0.1 to 1 µM | ≤ 0.001 µM | > 0.1 µM | ≤ 0.001 µM | > 0.1 µM | 0.0011 to 0.01 µM | > 0.1 µM
CCCNC(=O)Nc1cccc(S(=O)(=O)Nc2cccc([C@H](CC(=O)O)NC(=O)Nc3ccc(NC(=O)NCCOCCOCCOCCC(=O)NCCCC[C@H](NC(=O)CCOCCOCCOCCNC(=O)Nc4ccc(NC(=O)N[C@@H](CC(=O)O)c5cccc(NS(=O)(=O)c6cccc(NC(=O)NCCC)c6)c5)cc4)C(=O)NCCOCCOCCOCCC(=O)N[C@@H](CC(=O)O)C(=O)N4CCC[C@H]4C(=O)N[C@H](C(=O)N=[S@@](C)(=O)Cc4cc5cc(c4)OCCCCOc4cc(F)ccc4-c4nc(ncc4F)N5)C(C)C)cc3)c2)c1 [Compound 19] | – | – | – | – | ≤ 0.001 µM | 0.0011 to 0.01 µM | 0.1 to 1 µM | 0.1 to 1 µM | 0.1 to 1 µM | 0.1 to 1 µM | 0.1 to 1 µM | 0.1 to 1 µM | 0.011 to 0.1 µM | 0.1 to 1 µM | ≤ 0.001 µM | 0.011 to 0.1 µM | 0.0011 to 0.01 µM | > 0.1 µM | 0.0011 to 0.01 µM | 0.011 to 0.1 µM
CCCNC(=O)Nc1cccc(S(=O)(=O)Nc2cccc([C@@H](CC(=O)O)NC(=O)Nc3ccc(NC(=O)N(C)CCN(C)CCN(C)CC(=O)N[C@@H](CC(N)=O)C(=O)N4CCC[C@H]4C(=O)N[C@H](C(=O)N=[S@@](C)(=O)Cc4ccnc(Nc5cc(-c6ccc(F)cc6OC)c(F)cn5)c4)C(C)C)cc3)c2)c1 [Compound 4, N-{2-[{2-[({4-[({(1R)-2-Carboxy-1-[3-({3-[(propylcarbamoyl)amino]benzene-1-sulfonyl}amino)phenyl]ethyl}carbamoyl)amino]phenyl}carbamoyl)(methyl)amino]ethyl} (methyl)amino]ethyl}-N-methylglycyl-L-asparaginyl-L-prolyl-N—[(S)-[(2-{[5-fluoro-4-(4-fluoro-2-methoxyphenyl)pyridine-2-yl]amino}pyridin-4-yl)methyl](methyl)oxo-lambda^6-sulfanylidene]-L-valinamide] | – | – | – | – | 0.011 to 0.1 µM | > 0.1 µM | 0.1 to 1 µM | > 1 µM | 0.1 to 1 µM | > 1 µM | 0.011 to 0.1 µM | > 1 µM | > 1 µM | > 1 µM | 0.011 to 0.1 µM | > 0.1 µM | 0.011 to 0.1 µM | > 0.1 µM | 0.011 to 0.1 µM | > 0.1 µM
CCCNC(=O)Nc1cccc(S(=O)(=O)Nc2cccc([C@@H](CC(=O)O)NC(=O)Nc3ccc(NC(=O)NCCOCCOCCOCCC(=O)NCCCC[C@H](NC(=O)CCOCCOCCOCCNC(=O)Nc4ccc(NC(=O)N[C@H](CC(=O)O)c5cccc(NS(=O)(=O)c6cccc(NC(=O)NCCC)c6)c5)cc4)C(=O)NCCOCCOCCOCCC(=O)N[C@@H](CC(=O)O)C(=O)N4CCC[C@H]4C(=O)N[C@H](C(=O)N=[S@@](C)(=O)Cc4cc5cc(c4)OCCCCOc4cc(F)ccc4-c4nc(ncc4F)N5)C(C)C)cc3)c2)c1 [Compound 18] | – | – | – | – | ≤ 0.001 µM | 0.011 to 0.1 µM | ≤ 0.01 µM | 0.1 to 1 µM | 0.011 to 0.1 µM | > 1 µM | 0.011 to 0.1 µM | > 1 µM | 0.011 to 0.1 µM | 0.1 to 1 µM | ≤ 0.001 µM | 0.011 to 0.1 µM | 0.0011 to 0.01 µM | > 0.1 µM | 0.0011 to 0.01 µM | > 0.1 µM
CCCNC(=O)Nc1cccc(S(=O)(=O)Nc2cccc([C@H](CC(=O)O)NC(=O)Nc3ccc(NC(=O)NCCN(C)CCN(C)CCN(C)CC(=O)N[C@@H](CC(N)=O)C(=O)N4CCC[C@H]4C(=O)N[C@H](C(=O)N=[S@@](C)(=O)Cc4cc5cc(c4)OCCCCCNc4cc(ccc4F)-c4nc(ncc4F)N5)C(C)C)cc3)c2)c1 (relative stereo) [Compound 16] | – | – | – | – | 0.0011 to 0.01 µM | 0.011 to 0.1 µM | 0.011 to 0.1 µM | > 1 µM | ≤ 0.01 µM | > 1 µM | 0.011 to 0.1 µM | > 1 µM | 0.011 to 0.1 µM | 0.1 to 1 µM | ≤ 0.001 µM | > 0.1 µM | 0.0011 to 0.01 µM | > 0.1 µM | ≤ 0.001 µM | 0.011 to 0.1 µM
CCCNC(=O)Nc1cccc(S(=O)(=O)Nc2cccc([C@@H](CC(=O)O)NC(=O)Nc3ccc(NC(=O)NCCOCCOCCOCCC(=O)N[C@@H](CC(=O)O)C(=O)N4CCC[C@H]4C(=O)N[C@H](C(=O)N=S(C)(=O)Cc4ccnc(Nc5cc(-c6ccc(F)cc6OC)c(F)cn5)c4)C(C)C)cc3)c2)c1 (relative stereo) [Compound 2, disodium 1-[(2S)-2-(carboxylatomethyl)-17-{4-[({(1R)-2-carboxylato-1-[3-({3-[(propylcarbamoyl)amino]benzene-1-sulfonyl}amino)phenyl]ethyl}carbamoyl)amino]anilino}-4,17-dioxo-7,10,13-trioxa-3,16-diazaheptadecanan-1-oyl]-L-prolyl-N—[(S*)-[(2-{[5-fluoro-4-(4-fluoro-2-methoxyphenyl)pyridin-2-yl]amino}pyridin-4-yl)methyl](methyl)oxo-lambda^6-sulfanylidene]-L-valinamide] | – | – | – | – | 0.011 to 0.1 µM | > 0.1 µM | 0.1 to 1 µM | 0.1 to 1 µM | 0.1 to 1 µM | 0.1 to 1 µM | 0.1 to 1 µM | 0.1 to 1 µM | 0.1 to 1 µM | > 1 µM | 0.0011 to 0.01 µM | > 0.1 µM | 0.011 to 0.1 µM | > 0.1 µM | 0.011 to 0.1 µM | > 0.1 µM
